Experimental data from ChEMBL document CHEMBL1141339, “Studies on terpenoids produced by actinomycetes: oxaloterpins A, B, C, D, and E, diterpenes from Streptomyces sp. KO-3988” (2007).

Experiments:
[1] = test system: Bacillus subtilis; assay: Antibacterial activity against Bacillus subtilis ATCC 43223; type: functional
[2] = test system: Staphylococcus aureus; assay: Antibacterial activity against Staphylococcus aureus ATCC 29213; type: functional

Q: What does the source list for `C=C[C@@]1(C)CC=C2[C@@H](CC[C@@H]3C(C)(C)[C@H](OC(=O)C(=O)N(O)C(C)=O)CC[C@@]23C)C1` [OXALOTERPIN A]?
A: IC [1]: 1.9 nmol/mL; IC [2]: 3.7 nmol/mL
